Structures can show the parent of a compound that is named as a salt.
What was measured:
[1] = test system: tumor cell line 20-10-5S (hybridoma cell line); test: Test 8: Inhibition of tumor cell proliferation; assay type: cell-based; conditions: 48 h + 16 h tritiated thymidine incorporation; 20-10-5S cells
adjuvant/arthritis model = test: Test 6: antiarthritic effect in the adjuvant/arthritis model; assay type: in vivo, rat (Wistar-Lewis); conditions: Rattus norvegicus, po, 408 h, daily for 17 days, rat, read-out: Test 6 Paw volume (% inhibition); for inhibition in vivo at 50 mg/kg: 50 mg/kg orally; for inhibition in vivo at 20 mg/kg: 20 mg/kg orally
[2] = test system: cyclooxygenase-dependent thrombocyte aggregation; test: Test 5: Cyclooxygenase-dependent thrombocyte aggregation; assay type: cell-based, human; conditions: arachidonic acid as inducer
Protocol: TEST 5. Cyclooxygenase-dependent thrombocyte aggregation
Platelet-rich plasma (PRP): to inhibit coagulation, human blood was treated with 1/10 of its volume of 3.8% sodium citrate solution. Centrifugation then takes place at 105×g for 20 minutes and the supernatant (PRP) is removed. 200 μl of PRP were preincubated, at 37° C. for 10 minutes, together with 30 μl of test substance in a PAP4 aggregometer (BioData). The test substance was dissolved in organic solvent and diluted 1:30 with buffer (50 mM TisHCl, pH 8.0; 90 mM NaCl). Aggregation is triggered with 20 μl of inducer. During the aggregation, stirring takes place at 800 rpm. Arachidonic acid, 5 mg/ml, was used as the inducer.
The values in the table show the concentration of the test substance which was employed in μM and, besides this, the residual activity measured in percent based on the control, which was set to be 100%. The interleukin is additionally indicated in test 4.

[3] = test system: polymorphonuclear leucocytes (PMNL); test: Test 1: Release of proteolytic activity from human PMNL; assay type: cell-based; conditions: Homo sapiens, PMNL, read-out: Test 1 residual activity (release of proteolytic activity), percent of control
Protocol: Isolation of polymorphonuclear leucocytes (PMNL) from human peripheral blood for carrying out tests 1 and 2 10 ml of human blood were diluted with 10 ml of HBSS (Serva) and underlaid with 15 ml of Lymphoprep (Dr. Molter GmbH, Heidelberg). […] A white ring, composed of mononuclear cells, is located between these two phases. The lowermost phase is composed of erythrocytes which are covered with a white layer of PMNL. The uppermost phase, and also the Lymphoprep and the white ring, were carefully removed using a syringe. The remaining sediment was carefully resuspended in 15 ml of 3% dextran in PM16 (mw: 485,000, Sigma, Deisenhofen). The suspension was then left to stand at room temperature for one hour. During this time, the erythrocytes sedimented while the PMNL remained in the supernatant. The supernatant was removed, diluted with an approximately equal volume of PM16, and centrifuged for 15 minutes at 400×g. Should the PMNL sediment be heavily contaminated with erythrocytes, it is necessary to carry out a hypotonic lysis. To do this, the sediment was resuspended in 750 μl of water. After exactly 15 seconds, the suspension was diluted with approximately 7 ml of PM16 and centrifuged for 10 minutes at 400×g. If necessary, this lysis was repeated once more. Otherwise, the PMNL sediment was resuspended in a suitable medium. 250 μl of PMNL (5·10^6 cells/ml of PBS containing 7.5 mM glucose) were incubated at 37° C. for 20 minutes with 1 μl of test substance. 1 μl of cytochalasin B (5 μg/ml of test mixture) was then added and the mixture was incubated at 37° C. for a further 5 minutes. Following the addition of 1 μl of […] necrosis factor alpha (TNF; 30 ng/ml of test mixture), the incubation was continued for 5 minutes. The release was started using 1 μl of fMLP (10 nmol/l of test mixture). After 60 minutes at 37° C., the reaction was terminated by cooling the samples down to 0° C. The samples were then centrifuged, and the supernatant was removed and frozen down. Cytochalasin B and fMLP were dissolved in DMSO and TNF was diluted with buffer. 50 μl of the supernatant were mixed with 175 μl of buffer (100 mM HEPES, pH 7.5; 500 mM NaCl) in a 96-well microtiter plate. Following the addition of 25 μl of substrate (methoxysuccinyl-[…]-nitroanilide), the extinction of each well was measured at 405 nm after 0, 5, 10, 15, 30 and 60 minutes. […] The interleukin is additionally indicated in test 4.

[4] = Homo sapiens, 100 μM, read-out: Test 5 residual activity (cyclooxygenase-dependent thrombocyte aggregation), percent of control
[5] = Homo sapiens, read-out: Test 5 residual activity (cyclooxygenase-dependent thrombocyte aggregation), percent of control

SMILES	IC50 [1]	activity at 100 µM [2, 4]	also measured
CC(OC(=O)[C@@H](N)Cc1ccc(O)cc1)C1CC(c2cc(C(C)(C)C)c(O)c(C(C)(C)C)c2)=NO1 (mixture of isomers) [Example 88, L-Tyrosyl 1-(3-(3,5-di-tert-butyl-4-hydroxyphenyl)-2-isoxazolin-5-yl)ethyl ester, rac. 5,5'-erythro isomer mixture]	10 µM		
CC(C)(C)c1cc(C2=NO[C@H]([C@H]3CO3)C2)cc(C(C)(C)C)c1O (relative stereo) [Example 16]	30 µM		
CC(C)(C)c1cc(C2=NO[C@H]([C@@H]3CO3)C2)cc(C(C)(C)C)c1O (relative stereo) [Example 17]	8 to 15 µM		
CC(=O)O[C@@H](C)[C@@H]1CC(c2cc(C(C)(C)C)c(O)c(C(C)(C)C)c2)=NO1 (relative stereo) [Example 22, 1-(3-(4-Hydroxy-3,5-di-tert-butylphenyl)-2-isoxazolin-5-yl)ethyl acetate]			inhibition in vivo at 50 mg/kg (adjuvant/arthritis model): 74%
CC(=O)CC(=O)O[C@H](C)[C@@H]1CC(c2cc(C(C)(C)C)c(O)c(C(C)(C)C)c2)=NO1 (relative stereo) [Example 84, 1-(3-(4-Hydroxy-3,5-di-tert-butylphenyl)-2-isoxazolin-5-yl)ethyl 3-oxobutyrate]			inhibition in vivo at 25 mg/kg (adjuvant/arthritis model; 25 mg/kg orally): 49%
C[C@@H](OP(=O)(Oc1ccccc1)Oc1ccccc1)[C@@H]1CC(c2cc(C(C)(C)C)c(O)c(C(C)(C)C)c2)=NO1 (relative stereo) [Example 85, Diphenyl 1-(3-(4-hydroxy-3,5-di-tert-butylphenyl)-2-isoxazolin-5-yl)ethyl phosphate]	< 5 µM		Test 5 residual activity (cyclooxygenase-dependent thrombocyte aggregation), percent of control ([2]; 100 μM): 94%
C[C@@H](OC(=O)c1ccc(CN2CCOCC2)cc1)[C@@H]1CC(c2cc(C(C)(C)C)c(O)c(C(C)(C)C)c2)=NO1 (relative stereo) [Example 86, 1-(3-(4-Hydroxy-3,5-di-tert-butylphenyl)-2-isoxazolin-5-yl)ethyl 4-(4-morpholino)methylbenzoate hydrochloride]	< 5 µM		inhibition in vivo at 20 mg/kg (adjuvant/arthritis model): 70%
C[C@H](OC(=O)c1ccc(CN2CCOCC2)cc1)[C@@H]1CC(c2cc(C(C)(C)C)c(O)c(C(C)(C)C)c2)=NO1 (relative stereo) [Example 87, 1-(3-(4-Hydroxy-3,5-di-tert-butylphenyl)-2-isoxazolin-5-yl)ethyl 4-(4-morpholino)methylbenzoate hydrochloride]	< 5 µM		inhibition in vivo at 20 mg/kg (adjuvant/arthritis model): 50%
CC(C)(OCC1CC(c2cc(C(C)(C)C)c(O)c(C(C)(C)C)c2)=NO1)C(=O)O (centres unmarked) [Example 3, 2-(3-(4-Hydroxy-3,5-di-tert-butylphenyl)-2-isoxazolin-5-ylmethoxy)methylpropionic acid]	10 µM	98%	
CC(C)(C)c1cc(C2=NOC(COC(=O)NCC(=O)O)C2)cc(C(C)(C)C)c1O (centres unmarked) [Example 4, N-(3-(4-Hydroxy-3,5-di-tert-butylphenyl)-2-isoxazolin-5-ylmethoxycarbonyl)glycine]	30 µM		
CC(C)(C)c1cc(C2=NOC(C(N)=O)C2)cc(C(C)(C)C)c1O (centres unmarked) [Example 11]	< 5 µM		
CC(C)(C)c1cc(-c2cc(C(C)(C)O)on2)cc(C(C)(C)C)c1O [Example 29]	< 5 µM		
CCC(C)(O)c1cc(-c2cc(C(C)(C)C)c(O)c(C(C)(C)C)c2)no1 (centres unmarked) [Example 31]		100%	
CC(C)(C)c1cc(-c2noc(CO)c2CO)cc(C(C)(C)C)c1O [Example 32]			activity at 1 µM ([3]; 1 μM): 84%; activity at 10 µM ([3]; 10 μM): 72%; activity at 100 µM ([3]; 100 μM): 34%
CCOC(=O)COC(C)(C)c1cc(-c2cc(C(C)(C)C)c(O)c(C(C)(C)C)c2)no1 [Example 33, Ethyl (1-(3-(4-hydroxy-3,5-di-tert-butylphenyl)isoxazol-5-yl)-1-methylethoxy)acetate]	< 5 µM		
CC(C)(C)c1cc(-c2cc(C(C)(C)OCC(=O)O)on2)cc(C(C)(C)C)c1O [Example 34, (1-(3-(4-Hydroxy-3,5-di-tert-butylphenyl)isoxazol-5-yl)-1-methylethoxy)acetic acid]		98%	
CN(O)C(=O)C(C)(C)OCc1cc(-c2cc(C(C)(C)C)c(O)c(C(C)(C)C)c2)no1 [Example 37, N-Methylhydroxamoyl-2-((3-(4-hydroxy-3,5-di-tert-butylphenyl)isoxazol-5-ylmethoxy)-2-methyl propionate]	< 5 µM		
CCOC(=O)CNC(=O)OCc1cc(-c2cc(C(C)(C)C)c(O)c(C(C)(C)C)c2)no1 [Example 39, N-(3-(4-Hydroxy-3,5-di-tert-butylphenyl)isoxazol-5-ylmethoxycarbonyl)glycine ethyl ester]	30 µM	98%	
CC(C)(C)c1cc(-c2cc(CCCOC(=O)NCC(=O)O)on2)cc(C(C)(C)C)c1O [Example 42, N-(3-(4-Hydroxy-3,5-di-tert-butylphenyl)isoxazol-5-ylpropoxycarbonyl)glycine]	5 to 10 µM		
COC(=O)CCc1cc(-c2cc(C(C)(C)C)c(O)c(C(C)(C)C)c2)no1 [Example 44]	5 to 10 µM		activity at 10 µM ([2]; Homo sapiens, 10 μM, read-out: Test 5 residual activity (cyclooxygenase-dependent thrombocyte aggregation), percent of control): 99%
CC(C)(C)c1cc(-c2cc(CCC(=O)O)on2)cc(C(C)(C)C)c1O [Example 45, 3-(4-Hydroxy-3,5-di-tert-butylphenyl)isoxazol-5-ylpropionic acid]	5 to 10 µM	98%	
CCOP(=O)(/C=C/c1cc(-c2cc(C(C)(C)C)c(O)c(C(C)(C)C)c2)no1)OCC [Example 57, Diethyl 2-(3-(4-hydroxy-3,5-di-tert-butylphenyl)isoxazol-5-yl)vinylphosphonate]	< 5 µM	99%	
CC(C)(C)c1cc(-c2cc(/C=C/P(=O)(O)O)on2)cc(C(C)(C)C)c1O [Example 58, 2-(3-(4-Hydroxy-3,5-di-tert-butylphenyl)isoxazol-5-yl)vinylphosphonic acid]		99%	
CC(O)CC(O)CC1CC(c2cc(C(C)(C)C)c(O)c(C(C)(C)C)c2)=NO1 (centres unmarked) [Example 78]	5 to 10 µM		activity at 50 µM [2, 5]: 94%
C=CCC(O)CC1CC(c2cc(C(C)(C)C)c(O)c(C(C)(C)C)c2)=NO1 (centres unmarked) [Example 79]	5 to 10 µM	96%	
C=CCC(O)CC1CC(c2cc(C(C)(C)C)c(O)c(C(C)(C)C)c2)=NO1 (centres unmarked) [Example 80]	5 to 10 µM		activity at 50 µM [2, 5]: 97%
CC(=O)O[C@@H](C(=O)O)[C@@H](OC(C)=O)C(=O)NCc1cc(-c2cc(C(C)(C)C)c(O)c(C(C)(C)C)c2)no1 [Example 82, Di-O-acetyl-L-tartaric acid-N-(3-(4-hydroxy-3,5-di-tert-butylphenyl)isoxazol-5-yl)methylamide]		93%	
CC(C)(C)c1cc(-c2cc(CNC(=O)[C@H](O)[C@@H](O)C(=O)O)on2)cc(C(C)(C)C)c1O [Example 83]			inhibition in vivo at 50 mg/kg (adjuvant/arthritis model): 39%
